Measured values as given in ChEMBL document CHEMBL1201862, “PubChem BioAssay data set” (2004).
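1) Cells in 96-well plates. 2) Compound, 48 h, 5 concentrations. 3) Linear interpolation between surrounding doses. 4) Unreached endpoint = highest concentration. GI50 marks 50% less growth.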 Activity calls are given as the source filed them. No stated cut-off is given here; in the data, active = GI50 up to about 1.1 µM and inactive = higher.

Tests used:
Test in all cases: DTP human tumour cell line panel, 48 h
OVCAR-5 = system: OVCAR-5
M14 = system: M14
K562 = system: K562
KM-20L2 = system: KM-20L2
COLO 205 = system: COLO 205
OVCAR-8 = system: OVCAR-8
HCT-116 = system: HCT-116
CAKI-1 = system: CAKI-1
SN12C = system: SN12C
LXFL 529 = system: LXFL 529
KM12 = system: KM12
SF-268 = system: SF-268
NCI-H226 = system: NCI-H226
HCT-15 = system: HCT-15
DLD-1 = system: DLD-1
CCRF-CEM = system: CCRF-CEM
MOLT-4 = system: MOLT-4

| Structure (SMILES) | GI50 (OVCAR-5) | GI50 (M14) | GI50 (K562) | GI50 (KM-20L2) | GI50 (COLO 205) | GI50 (OVCAR-8) | GI50 (HCT-116) | GI50 (CAKI-1) | GI50 (SN12C) | GI50 (LXFL 529) | GI50 (KM12) | GI50 (SF-268) | GI50 (NCI-H226) | GI50 (HCT-15) [µM] | GI50 (DLD-1) | GI50 (CCRF-CEM) | GI50 (MOLT-4) |
| --- | --- | --- | --- | --- | --- | --- | --- | --- | --- | --- | --- | --- | --- | --- | --- | --- | --- |
| Cc1ccccc1NC(=O)C(=O)CC(=O)C1CCOC1=O (stereo not given) | > 100 µM (inactive) | > 100 µM (inactive) | > 100 µM (inactive) | > 100 µM (inactive) | > 100 µM (inactive) | > 100 µM (inactive) | > 100 µM (inactive) | > 100 µM (inactive) | > 100 µM (inactive) | > 100 µM (inactive) | > 100 µM (inactive) | > 100 µM (inactive) | > 100 µM (inactive) | > 100 | > 100 µM (inactive) | > 100 µM (inactive) |  |
| O=C1C2CC=CCC2C(=O)C12CCc1ccccc12 (stereo not given) |  | > 100 µM (inactive) | > 100 µM (inactive) | > 100 µM (inactive) | > 100 µM (inactive) | > 100 µM (inactive) |  | > 100 µM (inactive) | > 100 µM (inactive) | > 100 µM (inactive) |  | > 100 µM (inactive) |  | > 100 | > 100 µM (inactive) | > 100 µM (inactive) |  |
| Cn1cnc([N+](=O)[O-])c1Sc1n[nH]c(-c2ccc(Cl)cc2)n1 | 23.4 µM (inactive) | 15 µM (inactive) | 13.7 µM (inactive) |  | 17.1 µM (inactive) | 16.3 µM (inactive) | 19.6 µM (inactive) | 25.1 µM (inactive) | 15.5 µM (inactive) | 11.7 µM (inactive) | 18.5 µM (inactive) | 22 µM (inactive) | 14 µM (inactive) |  | 18.4 µM (inactive) | 11.8 µM (inactive) | 12.2 µM (inactive) |
| CCOC(=O)C(=O)CC(=O)C(Br)C(Br)c1ccc(Cl)cc1 (stereo not given) | > 100 µM (inactive) | 21.8 µM (inactive) | 17.6 µM (inactive) | > 100 µM (inactive) | 23.3 µM (inactive) | 34.9 µM (inactive) |  | 40.7 µM (inactive) | 30.3 µM (inactive) | 16.3 µM (inactive) | 57.9 µM (inactive) | 34.1 µM (inactive) |  | 33.5 | 18.3 µM (inactive) | 8.36 µM (inactive) | 21.7 µM (inactive) |
| CC1=C(C(=O)CC(=O)C(=O)Nc2ccc(Cl)cc2C)Sc2ccccc2N1 | > 100 µM (inactive) | > 100 µM (inactive) | > 100 µM (inactive) | > 100 µM (inactive) | > 100 µM (inactive) | > 100 µM (inactive) | > 100 µM (inactive) | > 100 µM (inactive) | > 100 µM (inactive) | > 100 µM (inactive) | > 100 µM (inactive) | > 100 µM (inactive) |  | > 100 | > 100 µM (inactive) | > 100 µM (inactive) | > 59.6 µM (inactive) |
| O=C1OCC/C1=N/O | > 100 µM (inactive) | > 100 µM (inactive) | > 100 µM (inactive) | > 100 µM (inactive) | > 100 µM (inactive) | > 100 µM (inactive) | > 100 µM (inactive) |  | > 100 µM (inactive) | > 100 µM (inactive) | > 100 µM (inactive) | > 100 µM (inactive) | > 100 µM (inactive) | > 100 | > 100 µM (inactive) | > 100 µM (inactive) | > 100 µM (inactive) |
| N=C(N)NS(=O)(=O)c1ccc(NC(=O)c2cccc3c(Nc4ccc(S(=O)(=O)N=C(N)N)cc4)c4ccccc4nc23)cc1 | > 100 µM (inactive) | 50.8 µM (inactive) | 5.98 µM (inactive) | 37.5 µM (inactive) | 31.3 µM (inactive) | 32.3 µM (inactive) | 38 µM (inactive) | > 10 µM (inactive) | > 100 µM (inactive) | 26.5 µM (inactive) | 33.4 µM (inactive) | 62.5 µM (inactive) |  | > 100 | 92.9 µM (inactive) | 43.9 µM (inactive) | 35.7 µM (inactive) |
| COc1ccc(/C=C(\NC(=O)c2ccccc2)c2nc3ccccc3[nH]2)cc1OC | > 100 µM (inactive) | > 100 µM (inactive) | > 100 µM (inactive) | > 100 µM (inactive) | > 100 µM (inactive) | > 100 µM (inactive) | > 100 µM (inactive) | > 100 µM (inactive) | > 100 µM (inactive) | 76 µM (inactive) | > 100 µM (inactive) | > 100 µM (inactive) | > 100 µM (inactive) | > 100 | > 100 µM (inactive) | 85.9 µM (inactive) | 79.1 µM (inactive) |
| CCOC(=O)/C(=C\c1ccc(N(CCC#N)CCC#N)cc1C)NC(=O)/C=C/c1ccccc1 | > 100 µM (inactive) | > 100 µM (inactive) | > 100 µM (inactive) | > 100 µM (inactive) | > 100 µM (inactive) | > 100 µM (inactive) | > 100 µM (inactive) | > 100 µM (inactive) | > 100 µM (inactive) | > 100 µM (inactive) | > 100 µM (inactive) | > 100 µM (inactive) | 96.2 µM (inactive) | > 100 | > 100 µM (inactive) | > 100 µM (inactive) | > 100 µM (inactive) |
| OCC1OC2c3ccccc3COC2C1OCc1ccccc1 (stereo not given) | > 100 µM (inactive) | > 100 µM (inactive) | 96.4 µM (inactive) | > 100 µM (inactive) | > 100 µM (inactive) | > 100 µM (inactive) | > 100 µM (inactive) | 96.8 µM (inactive) | > 100 µM (inactive) | 87.7 µM (inactive) | > 100 µM (inactive) |  | > 100 µM (inactive) | > 100 | > 100 µM (inactive) |  | > 100 µM (inactive) |
| Cn1ncc2c(Nc3ccc(Cl)cc3)c3ccccc3nc21 | 23.2 µM (inactive) | 14.8 µM (inactive) | 16.2 µM (inactive) |  | 19.7 µM (inactive) | 14.8 µM (inactive) | 12.2 µM (inactive) | 21.8 µM (inactive) | 16 µM (inactive) | 18.6 µM (inactive) | 18.7 µM (inactive) | 20.3 µM (inactive) | 17.3 µM (inactive) | 15.7 | 11.2 µM (inactive) | 17.9 µM (inactive) | 11.4 µM (inactive) |
| COc1ccc(Nc2nc3ccc(C(F)(F)F)cc3nc2-c2ccccc2)cc1OC | 52.7 µM (inactive) | 55.5 µM (inactive) | 31.4 µM (inactive) |  | 27.9 µM (inactive) | 58.6 µM (inactive) | 27.4 µM (inactive) | 60.4 µM (inactive) | 38 µM (inactive) | 43.2 µM (inactive) | 21.5 µM (inactive) | 92.7 µM (inactive) | 28.6 µM (inactive) | 15.9 | 30.5 µM (inactive) | 25.1 µM (inactive) | 22 µM (inactive) |
| COc1cc(OC)c(Oc2cccc(OC)c2OC)c(OC)c1 | > 100 µM (inactive) | > 100 µM (inactive) | > 100 µM (inactive) | > 100 µM (inactive) | > 100 µM (inactive) | > 100 µM (inactive) | > 100 µM (inactive) | > 100 µM (inactive) | > 100 µM (inactive) | > 100 µM (inactive) | > 100 µM (inactive) | > 100 µM (inactive) | > 100 µM (inactive) |  | > 100 µM (inactive) | > 100 µM (inactive) | > 100 µM (inactive) |
| COC(=O)/C(C#N)=C1\NC(=O)c2ccccc21 | > 100 µM (inactive) | > 100 µM (inactive) | > 100 µM (inactive) | > 100 µM (inactive) | > 100 µM (inactive) | > 100 µM (inactive) | > 100 µM (inactive) |  | > 100 µM (inactive) | > 100 µM (inactive) | > 100 µM (inactive) | > 100 µM (inactive) | > 100 µM (inactive) | > 100 | > 100 µM (inactive) | > 100 µM (inactive) | > 100 µM (inactive) |
| CC(C)=CC(=O)CC(=O)C(=O)Nc1ccc(Cl)c(Cl)c1 | > 100 µM (inactive) | > 100 µM (inactive) | > 100 µM (inactive) | > 100 µM (inactive) | > 100 µM (inactive) | > 100 µM (inactive) | > 100 µM (inactive) |  | > 100 µM (inactive) | > 100 µM (inactive) | > 100 µM (inactive) | > 100 µM (inactive) | > 100 µM (inactive) | > 100 | > 100 µM (inactive) | > 100 µM (inactive) | > 100 µM (inactive) |
| Cc1ccc(-c2nnc(SCC(=O)O)[nH]2)cc1 | > 100 µM (inactive) | > 100 µM (inactive) | > 100 µM (inactive) | > 100 µM (inactive) | > 100 µM (inactive) | > 100 µM (inactive) | > 100 µM (inactive) | > 100 µM (inactive) | > 100 µM (inactive) | > 100 µM (inactive) | > 100 µM (inactive) | > 100 µM (inactive) | > 100 µM (inactive) | > 100 | > 100 µM (inactive) | > 100 µM (inactive) | > 100 µM (inactive) |
| CC[C@H](C)N(CCN)C(=O)c1cc2ccccc2c(-c2ccccc2Cl)n1 | 14.7 µM (inactive) | 17.8 µM (inactive) | 3.05 µM (inactive) | 13.2 µM (inactive) | 4.54 µM (inactive) | 14.2 µM (inactive) | 2.85 µM (inactive) | 5.57 µM (inactive) | 18.2 µM (inactive) | 3.3 µM (inactive) | 14.9 µM (inactive) | 1.55 µM (inactive) | 15 µM (inactive) | 4.42 |  | 3.3 µM (inactive) | 7.31 µM (inactive) |
| Clc1cccc(Cl)c1C1SCc2nc3ccccc3n21 (stereo not given) | > 100 µM (inactive) | > 100 µM (inactive) | 10.7 µM (inactive) | 43.2 µM (inactive) | > 100 µM (inactive) | > 100 µM (inactive) | 9.23 µM (inactive) | > 100 µM (inactive) | > 100 µM (inactive) | > 100 µM (inactive) | > 100 µM (inactive) | > 100 µM (inactive) | > 100 µM (inactive) | 24.9 | 51.1 µM (inactive) | 54.5 µM (inactive) | 19.1 µM (inactive) |
